Format in all cases: cell-based
Assay [1] has as its system RD rhabdomyosarcoma cells. Put plainly: Growth inhibition, MTT, RD. The conditions noted are these: Rhabdomyosarcoma cell, 48 h, read-out: IC50 ± SD RD.
The subject of assay [2] is HepG2 hepatocellular carcinoma cells. Put plainly: Growth inhibition, MTT, HepG2. The conditions noted are these: Homo sapiens, HepG2, 48 h, read-out: IC50 ± SD HepG2.
Assay [3] relates to OVCAR-8 ovarian carcinoma cells. The experiment in a line: Growth inhibition of OVCAR-8 cells. Conditions: Homo sapiens, OVCAR-8, 96 h, read-out: IC50 ± SD OVCAR-8.
Another assay has as its system HeLa cells. Put plainly: NKG2D and DNAM-1 ligand surface expression, IF and flow cytometry. The conditions noted are these: data not shown. For orientation: In flow cytometry, cells or beads pass a laser one at a time.

Take `CC(=O)O[C@H]1C(=O)[C@@]2(C)[C@H]([C@H](OC(=O)c3ccccc3)[C@]3(O)C[C@H](OC(=O)[C@H](O)[C@@H](NC(=O)c4ccccc4)c4ccccc4)C(C)=C1C3(C)C)[C@]1(OC(C)=O)CO[C@@H]1C[C@@H]2O` [PTX, Paclitaxel]: in assay [1], the IC50 is over 10000 nM.
Consider `CC[C@]1(O)C[C@@H]2CN(CCc3c([nH]c4ccccc34)[C@@](C(=O)OC)(c3cc4c(cc3OC)N(C)[C@H]3[C@@](O)(C(=O)OC)[C@H](OC(C)=O)[C@]5(CC)C=CCN6CC[C@]43[C@@H]65)C2)C1` [VBL, vinblastine], for which the IC50 is 81 ± 2.4 nM in assay [2], 53 ± 2.5 nM in assay [1] and 15 ± 7 nM in assay [3].
As for `COc1cc(C(=O)c2ccn(-c3cccc(N)c3)c2)cc(OC)c1OC` [(1-(3-aminophenyl)-1H-pyrrol-3-yl)(3,4,5-trimethoxyphenyl)-methanone], in the assay with HeLa cells, the “induction of the NKG2D and DNAM-1 ligands” value is “unable to induce”.

A word on the IC50: it is the concentration that inhibits the measured activity by half.

The values above are taken from publication PMC4552448 (Journal of medicinal chemistry, 2015).
